Target: T1, Recombinant human JARID1B/KDM5B (Homo sapiens, UniProt Q9UGL1)
T1 construct: purchased Active Motif 31432; host or cells: Sf9 insect cells
Test: LANCE Ultra TR-FRET JARID1B (KDM5B) demethylase inhibition assay
Assay type: biochemical
Conditions: 0.1 uM of test-compounds, FLAG-JARID1B, 500 nM biotinylated H3K4me3 peptide substrate, 30 min at room temperature
Excerpt: FLAG-tagged JARID1B (also known as KDM5B) protein was screened against 49 compounds. For this compound screening, LANCE Ultra time-resolved fluorescence resonance energy transfer (TR-FRET) assay was employed using a europoium (Eu)-labeled antibody that can specifically recognize mono- or dimethylated peptides (H3K4me2/1) and ULight-streptavidin (ULight-SA), a small molecule fluorescent dye. When irradiated at 340 nm, the energy from the Eu donor is transferred to the ULight acceptor dye which, in turn, emits light primarily at 665 nm. The ratio between the intensity of primary emission at 665 nm and that of secondary emission at […] was used to quantify the level of lysine methylation. As JARID1B removes more methyl moieties from tri-methylated substrate peptides (H3K4me3), the ratio increases until the enzyme reaction is terminated. In case, therefore, the compounds disrupt the enzymatic activity completely, the ratio becomes equal to a background value.
Recombinant human JARID1B/KDM5B (accession number NP_006609) of molecular weight 179.9 KDa was expressed in Sf9 insect cells and contains an N-terminal FLAG tag. The enzyme was obtained from Active Motif (Catalog No. 31432). The tri-methylated histone substrate peptide of purity greater than 95% was a synthetic peptide in which the first 21 amino acids correspond to the human histone H3 sequence with three extra amino acids and a biotin motif (GGK-biotin) linked to the C-terminus [sequence: ART-K(Me3)-QTARKSTGGKAPRKQLA-GGK-biotin-OH], (AnaSpec, Fremont, Calif. Catalog. No. ANA-1413). The reference inhibitor compound tranylcypromine (or trans-2-phenylcyclopropylamine hydrochloride, also known as, 2-PCPA) was purchased from Sigma (St. Louis, Mo. Cat. no. P8511). ULight-labeled streptavidin (ULight-SA, Catalog no. TRF0102), Eu-W1024-labeled anti-methyl-Histone H3 Lysine 4 (H3K4me1-2) Antibody (Catalog no. TRF0402), and LANCE detection buffer 10× (Catalog no. CR97-100) were obtained from PerkinElmer (Montreal, Quebec, Canada). The TR-FRET experiments were carried out in white, low-volume 384-wellplates purchased from PerkinElmer (ProxiPlate_-384 Plus, Catalog no. 6008280).
The TR-FRET signal was measured in the presence both of the bio-H3K4me3 peptide and FLAG-JARID1B by detecting any H3K4me2/1 peptide produced in the assay system. Assays using only the bio-H3K4me2 peptide were served as a positive control. Robust enzymatic progressions were observed by using JARID1B at concentrations ranging from 10 to 30 nM. In a typical TR-FRET experiment, JARID1B was pre-incubated with or without 0.1 uM of test-compounds (containing 1% DMSO final) for 5 min. The enzymatic reactions were initiated by the addition of 500 nM biotinylated H3K4me3 peptide substrate plus 500 uM of 2-OG 25 uM Fe(II) and 2 mM ascorbate. The reaction buffer also contained 50 mM Hepes (pH7.5), 0.01% (v/v) Tween 20, and 50 mM NaCl. The reaction mixture was incubated for 30 min at room temperature before reading on an EnVision plate reader (PerkinElmer, Waltham, Mass.).

T1 sequence (Q9UGL1 whole entry): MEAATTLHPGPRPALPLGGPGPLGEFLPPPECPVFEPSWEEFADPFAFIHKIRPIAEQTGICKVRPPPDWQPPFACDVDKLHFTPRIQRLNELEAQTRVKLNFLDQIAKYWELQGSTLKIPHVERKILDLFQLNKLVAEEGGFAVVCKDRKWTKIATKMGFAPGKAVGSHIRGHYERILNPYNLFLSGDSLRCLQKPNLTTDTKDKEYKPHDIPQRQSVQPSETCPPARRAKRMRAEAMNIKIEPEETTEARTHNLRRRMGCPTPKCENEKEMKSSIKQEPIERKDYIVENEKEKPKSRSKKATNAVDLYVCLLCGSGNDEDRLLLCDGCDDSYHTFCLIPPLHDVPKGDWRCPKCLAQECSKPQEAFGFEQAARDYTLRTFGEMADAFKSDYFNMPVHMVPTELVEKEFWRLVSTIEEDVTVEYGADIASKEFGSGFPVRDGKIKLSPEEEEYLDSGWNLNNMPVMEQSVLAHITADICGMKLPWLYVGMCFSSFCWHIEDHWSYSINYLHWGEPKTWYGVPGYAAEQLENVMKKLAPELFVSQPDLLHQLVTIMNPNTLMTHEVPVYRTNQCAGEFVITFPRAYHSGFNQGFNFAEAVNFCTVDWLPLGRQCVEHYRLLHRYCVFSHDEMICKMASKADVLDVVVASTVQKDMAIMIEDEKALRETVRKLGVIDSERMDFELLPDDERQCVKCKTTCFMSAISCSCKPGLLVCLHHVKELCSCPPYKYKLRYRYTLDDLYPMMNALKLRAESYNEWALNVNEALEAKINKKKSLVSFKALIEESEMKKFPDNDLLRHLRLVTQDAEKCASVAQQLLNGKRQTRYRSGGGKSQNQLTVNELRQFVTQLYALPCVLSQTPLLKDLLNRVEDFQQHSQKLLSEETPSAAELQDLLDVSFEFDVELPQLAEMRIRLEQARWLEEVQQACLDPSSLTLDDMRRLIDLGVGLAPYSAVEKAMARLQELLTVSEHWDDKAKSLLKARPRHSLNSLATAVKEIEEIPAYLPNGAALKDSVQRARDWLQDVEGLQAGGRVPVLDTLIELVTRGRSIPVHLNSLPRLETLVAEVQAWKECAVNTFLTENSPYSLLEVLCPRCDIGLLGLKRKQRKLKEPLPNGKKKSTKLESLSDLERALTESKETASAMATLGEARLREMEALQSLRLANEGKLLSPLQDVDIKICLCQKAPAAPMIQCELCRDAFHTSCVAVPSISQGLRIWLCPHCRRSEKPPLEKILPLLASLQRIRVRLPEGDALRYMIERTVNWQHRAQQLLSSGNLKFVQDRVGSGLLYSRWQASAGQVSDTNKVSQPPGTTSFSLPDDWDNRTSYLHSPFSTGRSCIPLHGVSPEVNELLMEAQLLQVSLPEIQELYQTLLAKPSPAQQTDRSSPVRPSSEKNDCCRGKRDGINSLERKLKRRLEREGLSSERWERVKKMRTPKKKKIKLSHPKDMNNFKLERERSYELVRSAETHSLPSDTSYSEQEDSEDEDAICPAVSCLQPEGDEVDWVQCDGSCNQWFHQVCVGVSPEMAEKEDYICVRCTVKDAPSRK

Row | Compound | inhibition at 0.1 µM [%]
1 | CN1CCN(Cc2ccc(-c3cn(-c4nccc5c(=O)[nH]cnc45)nc3N)cc2)CC1 [Compound 33, 8-(3-amino-4-(4-((4-methylpiperazin-1-yl)methyl)phenyl)-1H-pyrazol-1-yl)pyrido[3,4-d]pyrimidin-4(3H)-one] | 20 to 50
2 | Nc1nn(-c2nccc3c(=O)[nH]cnc23)cc1-c1ccc(CN2CCCC2)cc1 [Compound 34, 8-(3-amino-4-(4-(pyrrolidin-1-ylmethyl)phenyl)-1H-pyrazol-1-yl)pyrido[3,4-d]pyrimidin-4(3H)-one] | 20 to 50
3 | Nc1nn(-c2nccc3c(=O)[nH]cnc23)cc1-c1cnn(C2CCCC2)c1 [Compound 35, 8-(3-amino-1′-cyclopentyl-1H,1′H-[4,4′-bipyrazol]-1-yl)pyrido[3,4-d]pyrimidin-4(3H)-one] | 20 to 50
4 | Nc1nn(-c2nccc3c(=O)[nH]cnc23)cc1-c1cccc(CO)c1 [Compound 36, 8-(3-amino-4-(3-(hydroxymethyl)phenyl)-1H-pyrazol-1-yl)pyrido[3,4-d]pyrimidin-4(3H)-one] | 20 to 50
5 | CN1CCN(Cc2cccc(-c3cn(-c4nccc5c(=O)[nH]cnc45)nc3N)c2)CC1 [Compound 37, 8-(3-amino-4-(3-((4-methylpiperazin-1-yl)methyl)phenyl)-1H-pyrazol-1-yl)pyrido[3,4-d]pyrimidin-4(3H)-one] | < 20
6 | O=c1[nH]cnc2c(-c3csc(NCCO)n3)nccc12 [Compound 38, 8-(2-((2-hydroxyethyl)amino)thiazol-4-yl)pyrido[3,4-d]pyrimidin-4(3H)-one] | ≥ 50
7 | C[C@H](O)CNc1nc(-c2nccc3c(=O)[nH]cnc23)cs1 [Compound 39, (S)-8-(2-((2-hydroxypropyl)amino)thiazol-4-yl)pyrido[3,4-d]pyrimidin-4(3H)-one] | ≥ 50
8 | C[C@@H](O)CNc1nc(-c2nccc3c(=O)[nH]cnc23)cs1 [Compound 40, (R)-8-(2-((2-hydroxypropyl)amino)thiazol-4-yl)pyrido[3,4-d]pyrimidin-4(3H)-one] | ≥ 50
9 | O=c1[nH]cnc2c(-c3csc(NCC4CCCO4)n3)nccc12 (centres unmarked) [Compound 41, 8-(2-(((tetrahydrofuran-2-yl)methyl)amino)thiazol-4-yl)pyrido[3,4-d]pyrimidin-4(3H)-one] | ≥ 50
10 | COCCNc1nc(-c2nccc3c(=O)[nH]cnc23)cs1 [Compound 42, 8-(2-((2-methoxyethyl)amino)thiazol-4-yl)pyrido[3,4-d]pyrimidin-4(3H)-one] | ≥ 50
11 | CN(C)CCNc1nc(-c2nccc3c(=O)[nH]cnc23)cs1 [Compound 43, 8-(2-((2-(dimethylamino)ethyl)amino)thiazol-4-yl)pyrido[3,4-d]pyrimidin-4(3H)-one] | 20 to 50
12 | NCCNc1nc(-c2nccc3c(=O)[nH]cnc23)cs1 [Compound 44, 8-(2-((2-aminoethyl)amino)thiazol-4-yl)pyrido[3,4-d]pyrimidin-4(3H)-one] | 20 to 50
13 | CN1CCN(CCNc2nc(-c3nccc4c(=O)[nH]cnc34)cs2)CC1 [Compound 45, 8-(2-((2-(4-methylpiperazin-1-yl)ethyl)amino)thiazol-4-yl)pyrido[3,4-d]pyrimidin-4(3H)-one] | 20 to 50
14 | O=c1[nH]cnc2c(-c3csc(NCCCO)n3)nccc12 [Compound 46, 8-(2-((3-hydroxypropyl)amino)thiazol-4-yl)pyrido[3,4-d]pyrimidin-4(3H)-one] | 20 to 50
15 | CN(C)CCCNc1nc(-c2nccc3c(=O)[nH]cnc23)cs1 [Compound 47, 8-(2-((3-(dimethylamino)propyl)amino)thiazol-4-yl)pyrido[3,4-d]pyrimidin-4(3H)-one] | 20 to 50
16 | CN1CCCC1CCNc1nc(-c2nccc3c(=O)[nH]cnc23)cs1 (centres unmarked) [Compound 48, 8-(2-((2-(1-methylpyrrolidin-2-yl)ethyl)amino)thiazol-4-yl)pyrido[3,4-d]pyrimidin-4(3H)-one] | 20 to 50
17 | O=c1[nH]cnc2c(-c3csc(NC4CCNCC4)n3)nccc12 [Compound 49, 8-(2-(piperidin-4-ylamino)thiazol-4-yl)pyrido[3,4-d]pyrimidin-4(3H)-one] | 20 to 50
18 | CN1CCC(Nc2nc(-c3nccc4c(=O)[nH]cnc34)cs2)CC1 [Compound 50, 8-(2-((1-methylpiperidin-4-yl)amino)thiazol-4-yl)pyrido[3,4-d]pyrimidin-4(3H)-one] | 20 to 50
19 | O=c1[nH]cnc2c(-c3csc(NCC4CCN(CCO)CC4)n3)nccc12 [Compound 51, 8-(2-(((1-(2-hydroxyethyl)piperidin-4-yl)methyl)amino)thiazol-4-yl)pyrido[3,4-d]pyrimidin-4(3H)-one] | ≥ 50

More lines, now with the values ahead:

Row | inhibition at 0.1 µM [%] | Compound
20 | ≥ 50 | O=c1[nH]cnc2c(-c3csc(NCC4CCN(Cc5ccccc5)CC4)n3)nccc12 [Compound 52, 8-(2-(((1-benzylpiperidin-4-yl)methyl)amino)thiazol-4-yl)pyrido[3,4-d]pyrimidin-4(3H)-one]
21 | ≥ 50 | COCCN1CCC(CNc2nc(-c3nccc4c(=O)[nH]cnc34)cs2)CC1 [Compound 53, 8-(2-(((1-(2-methoxyethyl)piperidin-4-yl)methyl)amino)thiazol-4-yl)pyrido[3,4-d]pyrimidin-4(3H)-one]
22 | ≥ 50 | O=c1[nH]cnc2c(-c3csc(NCC4CCN(C5CCCC5)CC4)n3)nccc12 [Compound 54, 8-(2-(((1-cyclopentylpiperidin-4-yl)methyl)amino)thiazol-4-yl)pyrido[3,4-d]pyrimidin-4(3H)-one]
23 | ≥ 50 | CC(C)N1CCC(CNc2nc(-c3nccc4c(=O)[nH]cnc34)cs2)CC1 [Compound 55, 8-(2-(((1-isopropylpiperidin-4-yl)methyl)amino)thiazol-4-yl)pyrido[3,4-d]pyrimidin-4(3H)-one]
24 | ≥ 50 | O=c1[nH]cnc2c(-c3csc(NCC4CCNCC4)n3)nccc12 [Compound 56, 8-(2-((piperidin-4-ylmethyl)amino)thiazol-4-yl)pyrido[3,4-d]pyrimidin-4(3H)-one]
25 | 20 to 50 | N[C@H]1CC[C@@H](Nc2nc(-c3nccc4c(=O)[nH]cnc34)cs2)CC1 [Compound 57, 8-(2-(((1s,4s)-4-aminocyclohexyl)amino)thiazol-4-yl)pyrido[3,4-d]pyrimidin-4(3H)-one]
26 | 20 to 50 | CN1CCOC(CNc2nc(-c3nccc4c(=O)[nH]cnc34)cs2)C1 (centres unmarked) [Compound 58, 8-(2-(((4-methylmorpholin-2-yl)methyl)amino)thiazol-4-yl)pyrido[3,4-d]pyrimidin-4(3H)-one]
27 | 20 to 50 | CN1CCC(CNc2nc(-c3nccc4c(=O)[nH]cnc34)cs2)C1 (centres unmarked) [Compound 59, 8-(2-(((1-methylpyrrolidin-3-yl)methyl)amino)thiazol-4-yl)pyrido[3,4-d]pyrimidin-4(3H)-one]
28 | 20 to 50 | CCC(O)CNc1nc(-c2nccc3c(=O)[nH]cnc23)cs1 (centres unmarked) [Compound 60, 8-(2-((2-hydroxybutyl)amino)thiazol-4-yl)pyrido[3,4-d]pyrimidin-4(3H)-one]
29 | 20 to 50 | O=c1[nH]cnc2c(-c3csc(NC4CCN(Cc5ccccc5)CC4)n3)nccc12 [Compound 61, 8-(2-((1-benzylpiperidin-4-yl)amino)thiazol-4-yl)pyrido[3,4-d]pyrimidin-4(3H)-one]

Source: patent publication US20170057955A1, “Pyridopyrimidinone Compounds for Modulating the Catalytic Activity of Histone Lysine Demethylases (KDMs)” (Dong-A Socio Holdings Co., Ltd., priority 2015, published 2017)
